One assay deals with receptor (Homo sapiens, UniProt P00533). The settings on record: J. Biol. Chem., 247, 7659 (1972); cited from earlier work.
Assay [1] has as its system Colon adenocarcinoma 26 (mouse colon adenocarcinoma). Description: Tumor weight of transplanted Colon adenocarcinoma 26 in BALB/c mice. The class given is in vivo. The settings on record: for antitumor effect potentiating action, same experiment as Experimental Example 13: in combination with cyclophosphamide in place of 5-FU. On the procedure: After BALB/c mice were preliminarily fed in a thermostat (23°±0.5° C.), humidistat (60±5%) room for 1 week, those which appear to be healthy weighing 18-20 g were provided for the present experiment in 6-12 mice per 1 group.
Colon adenocarcinoma 26 (mouse colon adenocarcinoma) was minced into pieces and about 0.1 to 0.2 ml thereof was transplanted subcutaneously on the right side of mouse abdomen by a cell transplanting needle (trocker). Six days after transplantation, the size of tumor, namely longer diameter (a mm) and shorter diameter (b mm) of tumor were measured and the tumor weight was calculated according to the formula shown below [Instruction 14 (NCI) 1980].
(§1) Tumor weight (mg)=ab^2 /2
Before carrying out experiments, tumor weights were measured immediately before administration of the compounds and the mice were grouped into 3 groups by use of random numbers so that there may be no difference in average value of the tumor weights on initiation of experiments between the respective groups to make even the average values of tumor weights of the respective groups, and thereafter the compounds were administered to the respective groups.
In this FIGURE, the axis of abscissa indicates the experimental days with the day of compound administration being the day 1, and the axis of ordinate indicates tumor cell growth ratio which is the ratio of the tumor weight after elapse of the respective days relative to the tumor weight on the day 1 as being 100%.

For assay [2], the system named is Colon adenocarcinoma 38 (mouse colon adenocarcinoma). The assay is described as follows: Tumor weight of transplanted Colon adenocarcinoma 38 in C57BL/6 mice. Format: in vivo. The following applies: for antitumor effect of (a) + (b) (quantity not headed; method of Experimental Example 4): Table 21. On the procedure: Colon adenocarcinoma 38 (mouse colon adenocarcinoma) was minced into pieces and about 0.1 to 0.2 ml thereof was transplanted subcutaneously on the right side of mouse abdomen by a cell transplanting needle (trocker). Eleven days after transplantation, the size of tumor, namely longer diameter (a mm) and shorter diameter (b mm) of tumor were measured and the tumor weight was calculated according to the formula shown below [Instruction 14 (NCI) 1980].
as §1
In the Table, days indicate the experimental days with the day of compound administration being as the day 1, and the tumor weight immediately before administration of compound of day 1 is made 100. The respective values show the average value ± standard error of case numbers of 10 to 20, in the Table, the marks of (*), * and *** indicate the statistical significance difference of the combined administration group relative to the 5-FU single administration group (the definition of P is as defined above).

Assay [3] relates to mouse ovarian tumor M5076. Description: Tumor weight of solid tumor of mouse ovarian tumor in BDF1 mice. The class given is in vivo. The following applies: used together with mytomycin C in place of cisplatin. On the procedure: BDF1 male mice were employed. The feeding conditions were the same as in Experimental Example 1.
Mouse ovarian tumor M5076 was transplanted subcutaneously at the axialla of mouse in 1-2×10^6 cells per mouse. 12 days after transplantation, the size of tumor was measured according to the same method as in Experimental Example 1 (Colon 26) and the tumor weight was calculated.
The grouping operation on initiation of Experiments was conducted in the same manner as in Experimental Example 1. The compounds were administered in the same manner as in Experimental Example 9.
The experiment was carried out in the samme manner as in Experimental Examples 1, 7 and as in Experimental Example 17 for others.

The subject of assay [4] is MX-1 (human breast cancer). The assay is described as follows: Tumor weight of transplanted human breast cancer in nude mice. The class given is in vivo, mouse (human tumor xenograft). The settings on record: Table 4, adriamycin 10 mg/Kg, hEGF 100 μg/Kg on days 1, 8, 10 and 13, average ± standard error of 8 mice. On the procedure:
After BALB/c AJcl-nu strain male nude mice were preliminarily fed for one week in an aseptic clean rack maintained at a constant temperature, (23±0.5°
C.) and a constant humidity (60±5%), those which appeared to be healthy weighing around 20 g were provided for the present experiment in 8 mice per group. The mice employed in the present experiments hereinafter were fed under the above environment.
MX-1 (human breast cancer) was cut into sizes of about 1 mm square and transplanted subcutaneously on the right side of mouse axilla by a cell transplanting needle (trocker). 17 days after transplantation, the size of tumor, namely the longer diameter (a mm) and shorter diameter (b mm) were measured and the tumor weight was calculated by the following formula similarly as for Colon 26.
as §1
Before carrying out experiments, tumor weights were measured immediately before administration of the compounds (the day 17 after tumor transplantation) and the mice were grouped into 3 groups by use of random numbers so that there may be no difference in average value of the tumor weights on initiation of experiments between the respective groups to make even the average values of tumor weights of the respective groups, and thereafter the compounds were administered to the respective groups.
Administration of the compounds was conducted 4 times as the total on the day 1, the day 8, the day 10 and the day 13. The test solutions were as shown below.

Setting [5] is: (a) Adriamycin, Mixed injection.
Where [6] appears, read: (a) Adriamycin, Separate injection.
[7] abbreviates: (a) Cisplatin, Separate injection.

For “hEGF-II: fragment lacking two amino acid residues on the C-terminal side of hEGF (NSDSECPLSHDGYCLHDGVCMYIEALDKYACNCVVGYIGERCQYRDLKWWE; not fully specified; Epidermal growth factor; UniProt P01133 971-1021, looked up, fragment)”, in the assay with receptor, the “binding ability of receptor or biological activity” value is “the same as hEGF”. In assay [1], the “antitumor effect potentiating action, same experiment as Experimental Example 13” value is on record as “the same results”. In assay [1] (used in place of hEGF in combination with 5 mg/Kg cisplatin), the “antitumor action potentiating effect, same experiment as Experimental Example 8” value is listed as “the same results”. Besides, the “antitumor effect of (a) + (b) (quantity not headed; method of Experimental Example 4)” value is on record as 105.6 in assay [2] (setting [5]); 103.3 in assay [2] (setting [6]); 102.3 in assay [2] ((a) Cisplatin, Mixed injection); 96.6 in assay [2] (setting [7]); 47.8 in assay [2] ((a) Tegafur, Mixed injection); 42.8 in assay [2] ((a) Tegafur, Separate injection). In addition, the “tumor cell growth inhibition, same experiment as Experimental Example 4” value in assay [2] (used in place of hEGF in combination with 5-FU) is recorded as “the same results”. The “tumor cell growth inhibition, same experiment as Experimental Example 14” value in assay [2] (used in place of hEGF in combination with Tegafur) is “the same results”. Also, in assay [3], the “antitumor effect potentiation, same experiment as Experimental Example 17” value is given as “the same results”.
Regarding `COc1cccc2c1C(=O)c1c(O)c3c(c(O)c1C2=O)C[C@@](O)(C(=O)CO)C[C@@H]3O[C@H]1C[C@H](N)[C@H](O)[C@H](C)O1` [Adriamycin, adriamycin], the “Tumor weight (day 1 = 100)” value stood at 162.0 ± 5.4 in assay [4] (day 4), 221.8 ± 20.1 in assay [4] (day 7), 291.8 ± 21.3 in assay [4] (day 11) and 256.9 ± 12.7 in assay [4] (day 14).
Take “hEGF: human epidermal growth factor/urogastrone, 53 amino acid residues, three disulfide bonds”: the “antitumor effect potentiating action, same experiment as Experimental Example 13” value in assay [1] is “the same results”. Moreover, the “antitumor effect of (a) + (b) (quantity not headed; method of Experimental Example 4)” value was found to be 103.1 in assay [2] (setting [5]); 98.5 in assay [2] (setting [6]); 88.8 in assay [2] ((a) Cisplatin, Mixed injection); 80.3 in assay [2] (setting [7]). Further, in assay [3], the “antitumor effect potentiation, same experiment as Experimental Example 17” value is reported as “the same results”.

Values taken from patent publication US4863902A, “Treatment of cancer” (Wakunaga Seiyaku Kabushiki Kaisha, priority 1985, dated 1989).
